Several values for one entry are separate records, joined by “and”; a condition that tells them apart may be missing. Equal values may be shown once. Toxic doses and inconclusive results are not listed.

The assay relates to BDF1 mice, P388 leukemia ip, median survival T/C. Nature of the assay: NCI In Vivo Anticancer Drug Screen. Data for tumor model P388 Leukemia (intraperitoneal) in B6D2F1 (BDF1) mice. The note with it: endpoint: median survival time, higher = longer survival. The method, boiled down: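 In tumour-bearing mice, survival after compound treatment is set against the vehicle group and given as a quotient.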

Where [1] appears, read: dose: 25.0 mg/kg/injection, schedule: Q01DX009 (ip), vehicle: water.
[2] abbreviates: dose: 50.0 mg/kg/injection, schedule: Q01DX009 (ip), vehicle: water.
[3] abbreviates: dose: 50.0 mg/kg/injection, schedule: Q04DX003 (ip), vehicle: water.
[4] abbreviates: dose: 100.0 mg/kg/injection, schedule: Q01DX009 (ip), vehicle: Klucel (hydroxypropylcellulose) (HPC).
[5] abbreviates: dose: 100.0 mg/kg/injection, schedule: Q01DX009 (ip), vehicle: water.
Setting [6] is: dose: 100.0 mg/kg/injection, schedule: Q04DX003 (ip), vehicle: water.
[7] abbreviates: dose: 200.0 mg/kg/injection, schedule: Q04DX003 (ip), vehicle: water.
The mark [8] stands for this setting: dose: 400.0 mg/kg/injection, schedule: Q04DX003 (ip), vehicle: water.
[9] abbreviates: dose: 100.0 mg/kg/injection, schedule: Q04DX003 (ip), vehicle: Klucel (hydroxypropylcellulose) (HPC).
Setting [10] is: dose: 200.0 mg/kg/injection, schedule: Q01DX009 (ip), vehicle: Klucel (hydroxypropylcellulose) (HPC).
Setting [11] is: dose: 200.0 mg/kg/injection, schedule: Q04DX003 (ip), vehicle: Klucel (hydroxypropylcellulose) (HPC).
Where [12] appears, read: dose: 400.0 mg/kg/injection, schedule: Q01DX009 (ip), vehicle: Klucel (hydroxypropylcellulose) (HPC).
Where [13] appears, read: dose: 400.0 mg/kg/injection, schedule: Q04DX003 (ip), vehicle: Klucel (hydroxypropylcellulose) (HPC).
The mark [14] stands for this setting: dose: 100.0 mg/kg/injection, schedule: Q01DX009 (ip), vehicle: saline with Tween-80.
[15] abbreviates: dose: 100.0 mg/kg/injection, schedule: Q04DX003 (ip), vehicle: saline with Tween-80.
Setting [16] is: dose: 200.0 mg/kg/injection, schedule: Q01DX009 (ip), vehicle: saline with Tween-80.
The mark [17] stands for this setting: dose: 200.0 mg/kg/injection, schedule: Q04DX003 (ip), vehicle: saline with Tween-80.
Where [18] appears, read: dose: 400.0 mg/kg/injection, schedule: Q01DX009 (ip), vehicle: saline with Tween-80.
[19] abbreviates: dose: 400.0 mg/kg/injection, schedule: Q04DX003 (ip), vehicle: saline with Tween-80.
[20] abbreviates: dose: 50.0 mg/kg/injection, schedule: Q01DX009 (ip), vehicle: saline with Tween-80.

In the case of `CC1(C)S[C@@H]2[C@H](NC(=O)CCC[C@@H](N)C(=O)O)C(=O)N2[C@H]1C(=O)O`, the T/C is 99 % of control (dose: 23.0 mg/kg/injection, schedule: Q01DX009 (ip), vehicle: saline); 106 % of control (dose: 47.0 mg/kg/injection, schedule: Q01DX009 (ip), vehicle: saline); 107 % of control and 117 % of control and 120 % of control (dose: 94.0 mg/kg/injection, schedule: Q01DX009 (ip), vehicle: saline); 102 % of control and 104 % of control and 106 % of control (dose: 188.0 mg/kg/injection, schedule: Q01DX009 (ip), vehicle: saline); 95 % of control and 102 % of control (dose: 750.0 mg/kg/injection, schedule: Q01DX009 (ip), vehicle: saline).
Turning to `[Cl][Pt+2]([Cl])([Cl])[Cl].c1ccc(C2CC[N-]CC2)cc1.c1ccc(C2CC[N-]CC2)cc1`, the T/C was 121 % of control (dose: 25.0 mg/kg/injection, schedule: Q01DX009 (ip), vehicle: Klucel (hydroxypropylcellulose) (HPC)); 103 % of control and 122 % of control under setting [1]; 112 % of control (dose: 50.0 mg/kg/injection, schedule: Q01DX009 (ip), vehicle: Klucel (hydroxypropylcellulose) (HPC)); 112 % of control under setting [2]; 109 % of control under setting [3]; 121 % of control under setting [4]. The T/C under setting [5] was 90 % of control, the T/C under setting [6] is 105 % of control, the T/C under setting [7] is 98 % of control and the T/C under setting [8] is 89 % of control.
For `Cc1ccc(-n2c(=S)[nH]c3ccccc3c2=O)cc1C`, the T/C is 100 % of control under setting [4]; 105 % of control under setting [9]; 86 % of control under setting [10]; 100 % of control under setting [11]; 91 % of control under setting [12]; 100 % of control under setting [13].
With `O=C(O)c1ccccc1CBr`, the T/C is, setting by setting: (dose: 100.0 mg/kg/injection, schedule: Q04DX003 (ip), vehicle: saline sonified) 104 % of control; (dose: 200.0 mg/kg/injection, schedule: Q04DX003 (ip), vehicle: saline sonified) 104 % of control; (dose: 400.0 mg/kg/injection, schedule: Q04DX003 (ip), vehicle: saline sonified) 100 % of control.
As for `O=[N+]([O-])C=C(S)S`, the T/C by setting is: (dose: 12.5 mg/kg/injection, schedule: Q01DX009 (ip), vehicle: water) 101 % of control; under setting [1], 124 % of control; under setting [2], 117 % of control; under setting [5], 108 % of control.
With `CN=C(N)c1ccc(NC(=O)c2ccc(C(=O)Nc3ccc(C(N)=NC)cc3)cc2)cc1`, the T/C (dose: 15.0 mg/kg/injection, schedule: Q01DX010 (ip), vehicle: saline) is 150 % of control and 160 % of control; the T/C (dose: 30.0 mg/kg/injection, schedule: Q01DX010 (ip), vehicle: saline) is 160 % of control and 175 % of control; the T/C (dose: 60.0 mg/kg/injection, schedule: Q01DX010 (ip), vehicle: saline) is 175 % of control and 180 % of control; the T/C (dose: 120.0 mg/kg/injection, schedule: Q01DX010 (ip), vehicle: saline) was 160 % of control.
For the compound `CCCCCCCCCCCC(c1ccccc1)[N+](C)(C)C` (configuration not stated), the T/C (dose: 1.0 mg/kg/injection, schedule: Q01DX010 (ip), vehicle: saline) was 100 % of control; the T/C (dose: 2.0 mg/kg/injection, schedule: Q01DX010 (ip), vehicle: saline) is 104 % of control; the T/C (dose: 4.0 mg/kg/injection, schedule: Q01DX010 (ip), vehicle: saline) was 116 % of control; the T/C (dose: 4.0 mg/kg/injection, schedule: Q04DX003 (ip), vehicle: saline) was 113 % of control; the T/C (dose: 8.0 mg/kg/injection, schedule: Q04DX003 (ip), vehicle: saline) is 118 % of control; the T/C (dose: 16.0 mg/kg/injection, schedule: Q04DX003 (ip), vehicle: saline) is 100 % of control.
Regarding `COc1cc(/C=N/NC(N)=S)cc(OC)c1OC`, the T/C runs as follows: under setting [14], 104 % of control; under setting [15], 90 % of control; under setting [16], 104 % of control; under setting [17], 109 % of control; under setting [18], 100 % of control; under setting [19], 104 % of control.
In the case of `O=CC(C=O)[N+](=O)[O-]`, the T/C runs as follows: under setting [4], 91 % of control; under setting [10], 95 % of control; under setting [12], 108 % of control.
For `O=c1cc(-c2ccccc2)ss1`, the T/C by setting is: (dose: 6.25 mg/kg/injection, schedule: Q01DX009 (ip), vehicle: saline with Tween-80) 98 % of control; (dose: 12.5 mg/kg/injection, schedule: Q01DX009 (ip), vehicle: saline with Tween-80) 102 % of control and 122 % of control; under setting [20], 110 % of control and 121 % of control; (dose: 50.0 mg/kg/injection, schedule: Q04DX003 (ip), vehicle: saline with Tween-80) 89 % of control; under setting [14], 121 % of control and 122 % of control; (dose: 100.0 mg/kg/injection, schedule: Q04DX003 (ip), vehicle: other) 105 % of control. In addition, the T/C is, setting by setting: under setting [15], 99 % of control and 100 % of control; (dose: 178.0 mg/kg/injection, schedule: Q04DX003 (ip), vehicle: other) 111 % of control; under setting [16], 110 % of control; (dose: 200.0 mg/kg/injection, schedule: Q04DX003 (ip), vehicle: other) 100 % of control; under setting [17], 111 % of control; (dose: 266.0 mg/kg/injection, schedule: Q04DX003 (ip), vehicle: other) 111 % of control. In addition, under setting [19], the T/C is 100 % of control.
Consider `CC(Br)C(=O)c1ccc(OCc2ccccc2)cc1` (configuration not stated), for which the T/C under setting [20] was 117 % of control and the T/C under setting [14] is 119 % of control.
As for `CCOC(=O)Cn1cnc2cc(Cl)c([N+](=O)[O-])cc2c1=O`, the T/C reads like this: (dose: 50.0 mg/kg/injection, schedule: Q04DX003 (ip), vehicle: Klucel (hydroxypropylcellulose) (HPC)) 96 % of control; under setting [9], 104 % of control; under setting [11], 102 % of control; under setting [13], 109 % of control.
On to `COc1ccc(C(=O)CCCCl)c(OC)c1`, for which the T/C was 100 % of control under setting [15], 100 % of control under setting [17] and 90 % of control under setting [19].
In the case of `ON=C(c1ccccn1)c1ccccn1`, the T/C is 100 % of control (dose: 100.0 mg/kg/injection, schedule: Q04DX003 (ip), vehicle: gum acacia); 104 % of control (dose: 200.0 mg/kg/injection, schedule: Q04DX003 (ip), vehicle: gum acacia); 104 % of control (dose: 400.0 mg/kg/injection, schedule: Q04DX003 (ip), vehicle: gum acacia).
For `COC(=O)C1=C(C)N[C@@]2(C)[C@H](C(=O)OC)C[C@H]1C2(C(C)=O)C(C)=O`, the T/C is 116 % of control under setting [20], 109 % of control under setting [14] and 109 % of control under setting [16].
As to `CC1NNC(=O)C1(Br)Br` (configuration not stated), the T/C reads like this: (dose: 1.56 mg/kg/injection, schedule: Q01DX009 (ip), vehicle: gum acacia) 113 % of control; (dose: 3.12 mg/kg/injection, schedule: Q01DX009 (ip), vehicle: gum acacia) 113 % of control; (dose: 6.25 mg/kg/injection, schedule: Q01DX009 (ip), vehicle: gum acacia) 94 % of control.
Consider `Nc1ccn(CC(=O)N2CCOCC2)c(=O)n1`, for which the T/C was 106 % of control (dose: 25.0 mg/kg/injection, schedule: Q04DX003 (ip), vehicle: water); 103 % of control under setting [3]; 89 % of control under setting [6]; 103 % of control under setting [7]; 94 % of control under setting [8].
Turning to `Cn1ncc2c(NCCc3ccccc3)ncnc21`, the T/C (dose: 25.0 mg/kg/injection, schedule: Q01DX009 (ip), vehicle: saline with Tween-80) is 100 % of control and the T/C under setting [20] is 100 % of control.
`CSc1ncc(CO)c(N)n1`: the T/C under setting [4] is 91 % of control, the T/C under setting [10] was 95 % of control and the T/C under setting [12] was 87 % of control.
For the compound `c1cc[c]([Sn]([S][Sn]([c]2ccccc2)([c]2ccccc2)[c]2ccccc2)([c]2ccccc2)[c]2ccccc2)cc1`, the T/C by setting is: under setting [20], 98 % of control; under setting [14], 93 % of control; under setting [16], 114 % of control; under setting [18], 86 % of control.

Values taken from PubChem BioAssay AID328 (DTP/NCI, 2004).
